Experimental findings from PubChem BioAssay (NCI) are described below.

The structures appear in SMILES notation.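 Step 1: Grow cells in 96-well plates. Step 2: Expose to compound for 48 hours at 5 concentrations. Step 3: Interpolate endpoints linearly; if unreached, use highest concentration. GI50 is the concentration that inhibits growth by half. The concentration for full growth arrest is given as TGI.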 Some results are limits rather than exact numbers.

Common to all, as to assay: NCI tumour cell line growth inhibition, 48 h
Assay [1] relates to HCT-15 colon.
The test system of assay [2] is MDA-MB-231 breast.
For assay [3], the system named is HOP-92 NSCLC.
In assay [4] the test system is KM12 colon.
Assay [5] has as its system PC-3 prostate.
Assay [6] deals with SK-OV-3 ovarian.
Assay [7] concerns MCF7 breast.
The test system of assay [8] is UACC-257 melanoma.
Assay [9] concerns K-562 leukemia.
Assay [10] concerns HCT-116 colon.

With `O=C(Oc1ccc([N+](=O)[O-])cc1)N1CCC(C(O)(c2ccc3c(c2)OCO3)c2ccc3c(c2)OCO3)CC1`, the GI50 was more than 100 µM in assay [1]; more than 100 µM in assay [2]; more than 52.3 µM in assay [3]; more than 100 µM in [4]; more than 100 µM in [5]; more than 100 µM in [6]. Also, the GI50 in assay [7], in [8], in [9] and in assay [10] was more than 100 µM each time. Moreover, the TGI in assay [1], in assay [2], in assay [3], in [4], in assay [5] and in assay [6] was more than 100 µM each time. Moreover, the TGI in [7], in assay [8], in assay [9] and in [10] was more than 100 µM in each case.

Regarding `O=C1C(Nc2ccccn2)=C(I)C(=O)c2ncccc21`, the GI50 in [1] is 0.226 µM; in assay [2] it was 1.53 µM; in assay [3] it was 1.65 µM; in assay [4], 1.65 µM; in [5], 1.75 µM; in assay [6] it was 1.33 µM. Besides, the GI50 is 0.396 µM in assay [7], 1.59 µM in assay [8], 0.367 µM in assay [9] and 0.372 µM in assay [10]. Further, the TGI in assay [1] was 1.39 µM; in [2], 4.86 µM; in [3], 4.36 µM; in assay [4], 3.42 µM; in [5], 5.12 µM; in assay [6] it was 2.64 µM. The TGI in assay [7] was 2.07 µM; in assay [8], 3.49 µM; in assay [9] it was 4.29 µM; in assay [10] it was 1.61 µM.

As to `C=CCSc1n[nH]c(-c2cccs2)n1`, the GI50 in [1], in assay [2], in [3], in assay [4], in assay [5] and in assay [6] was more than 100 µM each time. In addition, the GI50 in assay [7], in assay [8], in assay [9] and in assay [10] was more than 100 µM throughout. The TGI in [1], in assay [2], in assay [3], in assay [4], in [5] and in [6] was more than 100 µM each time. In addition, the TGI in assay [7], in [8], in assay [9] and in assay [10] was more than 100 µM throughout.

On to `CN(C)CCCC1(c2ccc(F)cc2)OCc2cc(-c3ccc4cc[nH]c4c3)ccc21` (stereo not given), for which the GI50 was 1.7 µM in assay [1]; 1.65 µM in [2]; 2.28 µM in assay [3]; 1.85 µM in [4]; 2.17 µM in assay [5]; 3.38 µM in assay [6]. Besides, the GI50 in assay [7] is 1.65 µM; in [8], 1.96 µM; in [9], 1.93 µM; in [10], 1.88 µM. Besides, the TGI was determined as 3.14 µM in assay [1]; 3.22 µM in assay [2]; 7.9 µM in [3]; 3.42 µM in [4]; 5.36 µM in assay [5]; 12.9 µM in assay [6]. Also, the TGI stood at 3.24 µM in assay [7], 3.91 µM in assay [8], 4.08 µM in [9] and 3.57 µM in assay [10].

On to `NC1=C(c2nc(-c3cc4ccccc4oc3=O)cs2)C(c2ccco2)c2c(c3ccccc3oc2=O)O1` (stereo not given), for which the GI50 in [1] is more than 150 µg/mL; in [2], 75.7 µg/mL; in assay [3], 53.3 µg/mL; in assay [4], more than 150 µg/mL; in [5], more than 150 µg/mL; in assay [6], 51.4 µg/mL. Besides, the GI50 in assay [7] was more than 150 µg/mL; in [8], more than 150 µg/mL; in assay [9] it was 95.9 µg/mL; in assay [10], more than 150 µg/mL. Besides, the TGI in assay [1], in assay [2], in assay [3], in assay [4], in assay [5] and in assay [6] was more than 150 µg/mL each time. Besides, the TGI in assay [7], in assay [8], in assay [9] and in assay [10] was more than 150 µg/mL throughout.

Regarding `Cc1cc(NC(=O)CCc2ccc(N3C(N)=NC(N)=NC3(C)C)cc2)ccc1S(=O)(=O)F`, the GI50 in [1] was 4.51 µM; in assay [2], more than 87.2 µM; in [3], more than 39 µM; in assay [4], 0.338 µM; in assay [5], 0.368 µM; in [6], 4.58 µM. Also, the GI50 in assay [7] is 0.115 µM; in assay [8], 15.1 µM; in assay [9], 0.737 µM; in [10], 0.62 µM. The TGI in [1] is more than 100 µM; in assay [2], more than 100 µM; in assay [3] it was more than 100 µM; in [4], more than 63.7 µM; in assay [5], more than 100 µM; in assay [6] it was more than 100 µM. Also, the TGI in assay [7] was more than 25.1 µM; in assay [8], more than 100 µM; in [9] it was more than 100 µM; in assay [10], more than 100 µM.

In the case of `CC1=COC2=C(C)C(=O)C(=O)c3c(C)ccc1c32`, the TGI in [1] is 11.5 µM; in assay [2], 23.6 µM; in assay [3], 39.9 µM; in [4], 26.4 µM; in assay [5], 22.5 µM; in assay [6], more than 93.2 µM. In addition, the TGI in assay [7] is 8.92 µM; in assay [8] it was 20.6 µM; in assay [9], more than 100 µM; in [10] it was 20.6 µM.

On to `O=[N+]([O-])c1ccc(N(CCO)CCO)c2c1no[n+]2[O-]`, for which the GI50 is 1.56 µM in [1]; 2.29 µM in assay [2]; 1.22 µM in assay [3]; 1.16 µM in assay [4]; 1.57 µM in assay [5]; 1.21 µM in assay [6]. The GI50 is 1.21 µM in assay [7], 1.89 µM in assay [8], 1.58 µM in assay [9] and 1.1 µM in assay [10]. Further, the TGI in assay [1] was determined as 7.06 µM; in [2], 14.3 µM; in assay [3] it was 5.82 µM; in [4], 2.53 µM; in assay [5], 15.9 µM; in assay [6], 4.14 µM. Also, the TGI worked out at 10.2 µM in [7], 6.54 µM in [8], 4.65 µM in assay [9] and 3.03 µM in assay [10].
